Results on 6 compounds are retold here after patent US20190225683A1, “TARGETING OXAZOLE STRUCTURES FOR THERAPY AGAINST INFLAMMATORY DISEASES” (THE BRIGHAM AND WOMEN'S HOSPITAL, INC., priority 2015, published 2019).

Entries after “also recorded” stand apart in the source; their conditions may differ.

The subject of series [1] is MODE-K cells. Kind of series: MODE-K cells stimulated with compounds, Mttp and Cxcl16 transcripts by qPCR. Format: cell-based, mouse. As to conditions: for Cxcl16 transcript expression / Mttp transcript expression: MODE-K cells, 48 hours, qPCR normalized to β-actin; for Transcriptional pattern of NKT signature genes (Mttp, Cxcl16): MODE-K epithelial cells. As to the method:
Mode-K cells were stimulated for 48 hours with the listed compounds and MUT) (2A) and Cxcl16 (2B) transcript express was quantified by qPCR normalized to β-actin, a housekeeping gene. Graph color coded to indicate control, OxC, and ITE compounds. […]
Kinetic transcript profiles of Mttp, Cxcl16, CD1d, and Hsp110 are assessed by qPCR normalizing transcript abundance to house keeping gene, (3-actin. Protein expression is quantified by immunoblot (MTTP, HSP110) or ELISA (CXCL16). CD1d protein expression is monitored using monoclonal antibodies conjugated to phycoerythrin and fluorescein isothyocynate to assess CD1d trafficking to and from the cell surface.[89]Stimulatory ligands are washed out prior to administration of αGC, and conditioned cells are co-cultured over night with 4 classes of invariant (DN32.D3, 24.7, 24.8) or non-variant (14S.6) to assess αGC specific and autoreactive responses to epithelial and myeloid cell lipid presentation. Production of IL-10, IL-4, IL-13, IFNγ response to epithelial and myeloid, and the source of cytokine production (APC or NKT) are determined using gluteraldehyde fixation. Primary iNKT cells are isolated from colonic lamina propria or peripheral organs (liver, spleen, mesenteric lymph node) and purified by FACS (BD ARIA-II Sorter) using monoclonal antibodies against CD45, TCRI3, CD3E, and CD1d:αGC loaded tetramer (APC conjugated) and exclusion of unloaded CD1d tetramer (PE). […] Strand specific libraries are generated using 500 ng RNA input and subject to paired-end 100 bp read sequencing using a HISEQ2000 at the Dana Farber Cancer Institute. Sequence reads are aligned to the mouse mm10 reference genome using Tophat alignments restricted to uniquely mapping reads with <2 possible mismatches permitted. […] Candidate transcripts arevalidated in primary IECs (EpCAM+ CD45−) or mucosal APCs by qPCR.
(Real-time PCR tracks product formation cycle by cycle.)

For series [2], the system named is AhR response elements (XRE). To be noted: cited from earlier work.
In series [3] the test system is NFkB reporter. Kind of series: NFkB reporter assay. Type of series: cell-based. To be noted: FIG. 14.
A short description of series [4]: Colitis model: skin pre-sensitization, then intra-rectal administration. Format: in vivo, mice. As to the method: Colitis scores were blindly performed by a pathologist.
Distal colon explants were cultured overnight and IL-10 (6A) and IL-13 (6B) production was measured by ELISA.
Changes in weight are monitored and colons harvested on day 3 and day 5 post-rectal challenge for histopathological analysis. Distalhyperemia in the mucosa, cellular infiltration in the lamina propria, elongation of colonic mucosa, epithelial erosion. The number of conventional T cells, NKT cells and mucosal APC subsets are enumerated by established flow cytometry protocols.[11] In addition, kinetic cytokine profiles are analyzed to verify that OxC colitis phenocopies molecular signatures associated with oxazolone colitis. […] [8] In addition, colonic IECs and lamina propria mononuclear cells are sorted by FACS and analyzed for Mttp and Cxcl16 expression by qPCR.

Series [5] deals with 24.7 NKT hybridoma. Kind of series: Compound-conditioned MODE-K cells incubated with alpha-galactosylceramide, co-cultured with 24.7 iNKT hybridoma, IL-10 by ELISA. Type of series: cell-based, mouse. As to conditions: MODE-K conditioned with compound or lysate, αGC presented on CD1d. How it is done: FIGS. 3A-3B depict in accordance with an embodiment of the invention, (3A) MODE-K cells transfected with control- or AhR-targeted siRNA. After 48 hours, these cells were stimulated with the compounds indicated for 48 hours. Cells were washed and incubated with alpha-galactosylceramide and subsequently co-cultured with the 24.7 NKT hybridoma. IL-10 production was measured by ELISA. (3B) Hepatocytes from WT or AhR-deficient mice were stimulated as in (3A).
FIGS. 7A-7B depict in accordance with an embodiment of the invention, (7A) structure of the OxC compound, B17 microcin. […] Cells were incubated with aGC and co-cultured with24.7 iNKT hybridoma and IL-10 production was measured. “[…]”, “G2QG2”, “GGNG”, and “GSHI” are disclosed as SEQ ID NO: 3, SEQ ID NO: 6, SEQ ID NO: 5, and SEQ ID NO: 2, respectively.
Kinetic transcript profiles of Mttp, Cxcl16, CD1d, and Hsp110 are assessed by qPCR normalizing transcript abundance to house keeping gene, (3-actin. Protein expression is quantified by immunoblot (MTTP, HSP110) or ELISA (CXCL16). CD1d protein expression is monitored using monoclonal antibodies conjugated to phycoerythrin and fluorescein isothyocynate to assess CD1d trafficking to and from the cell surface.[89]Stimulatory ligands are washed out prior to administration of αGC, and conditioned cells are co-cultured over night with 4 classes of invariant (DN32.D3, 24.7, 24.8) or non-variant (14S.6) to assess αGC specific and autoreactive responses to epithelial and myeloid cell lipid presentation. Production of IL-10, IL-4, IL-13, IFNγ response to epithelial and myeloid, and the source of cytokine production (APC or NKT) are determined using gluteraldehyde fixation. […] Strand specific libraries are generated using 500 ng RNA input and subject to paired-end 100 bp read sequencing using a HISEQ2000 at the Dana Farber Cancer Institute. Sequence reads are aligned to the mouse mm10 reference genome using Tophat alignments restricted to uniquely mapping reads with <2 possible mismatches permitted. […]
Background: ELISA stands for enzyme-linked immunosorbent assay.

In series [6] the test system is AhR reporter. Kind of series: AhR reporter assay. Type of series: cell-based. To be noted: FIG. 14. (In general: Reporter assays use an easily measured gene product as a stand-in for the process of interest.)
Series [7] has as its target T1, aryl hydrocarbon receptor (AhR) (Homo sapiens, UniProt P35869).
T1 sequence (P35869 11-848): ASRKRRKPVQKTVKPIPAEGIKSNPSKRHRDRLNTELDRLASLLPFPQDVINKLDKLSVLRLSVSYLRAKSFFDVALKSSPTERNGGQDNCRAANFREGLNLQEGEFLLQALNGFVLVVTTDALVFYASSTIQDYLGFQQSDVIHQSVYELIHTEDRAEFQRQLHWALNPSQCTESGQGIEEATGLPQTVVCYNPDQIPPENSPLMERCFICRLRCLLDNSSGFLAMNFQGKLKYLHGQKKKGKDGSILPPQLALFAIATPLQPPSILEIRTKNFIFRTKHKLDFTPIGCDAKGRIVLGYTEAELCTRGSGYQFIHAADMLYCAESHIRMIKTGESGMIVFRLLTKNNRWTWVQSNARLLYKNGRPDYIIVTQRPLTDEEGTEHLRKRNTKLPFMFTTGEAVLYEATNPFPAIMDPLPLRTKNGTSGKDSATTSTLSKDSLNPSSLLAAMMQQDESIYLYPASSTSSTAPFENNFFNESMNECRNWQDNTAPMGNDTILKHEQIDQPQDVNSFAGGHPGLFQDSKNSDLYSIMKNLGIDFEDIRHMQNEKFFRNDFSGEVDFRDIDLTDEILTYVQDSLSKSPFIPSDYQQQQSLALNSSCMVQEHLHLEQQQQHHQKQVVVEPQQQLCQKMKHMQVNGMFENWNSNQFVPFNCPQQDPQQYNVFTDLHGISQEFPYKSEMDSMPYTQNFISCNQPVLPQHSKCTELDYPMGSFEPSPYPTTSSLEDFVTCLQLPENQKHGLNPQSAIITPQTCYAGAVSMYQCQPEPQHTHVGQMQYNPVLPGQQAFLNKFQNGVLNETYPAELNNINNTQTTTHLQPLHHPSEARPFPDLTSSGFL
As to conditions: previous studies; cited from earlier work.

Series [8] has as its target T2, AhR (Homo sapiens, UniProt P35869).
T2 construct: endogenous in cells; host or cells: HepG2
T2 sequence (P35869 11-848): T1 sequence (P35869 11-848)
As to conditions: hepatocyte reporter assay; cited from earlier work.

Series [9] has as its system AhR. Kind of series: AhR targets Cyp1a1 and IDO1 by qPCR in MODE-K cells with control or AhR-targeted siRNA. Format: cell-based, mouse. As to conditions: MODE-K cells or primary hepatocytes. As to the method: FIGS. 8A-8C depict in accordance with an embodiment of the invention, MODE-K transfected with control or AhR-targeted siRNA. After 48 hours, MODE-K cells were stimulated with the indicated compounds. Cyp1a1 (8A) or IDO1 (8B, 8C) were quantified by qPCR.
Stimulation of MODE-K cells with OxC compounds but not control compounds differentially regulates two well characterized AhR targets: Cyp1a1,[68] and IDO1. [FIG. 8] Specific siRNA mediated knockdown of the AhR in MODE-K cells diminished expression of both AhR targets in response to OxC stimulation.

The mark [10] stands for this setting: compared to vehicle treated control animals.

For 1-methyl-pyrroline [MP], in series [1], the Cxcl16 transcript expression entry was “loss of these biological effects” and the Mttp transcript expression result is reported as “loss of these biological effects”.

Consider `COC(=O)c1csc(C(=O)c2c[nH]c3ccccc23)n1` [ITE, 2-(1H-Indol-3-carbonyl)-4-thiazolecarboxylic acid methyl ester], for which the “Concentration activating XRE” value in series [2] was “picomolar concentrations”.

For `CC1CC(C)C(C)C1` (stereo not shown) [TMC, 1,2,4-trimethylcyclopentane], in series [1], the Cxcl16 transcript expression result was “loss of these biological effects” and the Mttp transcript expression entry is on record as “loss of these biological effects”.

Turning to `CC1=NC(C)OC1C` (stereo not shown) [TMO, 2,4,5-trimethyl-2,5-dihydro-1,3-oxazole], in series [3], the NFkB reporter activation result is reported as “not an NFkB reporter”. Besides, in series [4] (setting [10]), the “Colitis phenotype in vivo” value was “phenocopies the inflammation associated with oxazolone”; the Colon shortening entry was “colon shortening”; the “Expression of Th2 cytokines” value is listed as “expression of Th2 cytokines characteristic of ulcerative colitis”; the “Histopathology, blind scoring by a pathologist” value was “histopathology (based on blind scoring by a pathologist)”. Also, the Weight loss result in [4] (setting [10]) was “increased weight loss”. Moreover, in [1], the Cxcl16 transcript expression result is “induce CXCL16” and the Mttp transcript expression entry was “suppress Mttp”. For the same compound, the “IL-10 production by iNKT cells co-cultured with conditioned cells” value (from here on “IL-10 production”) in series [5] was “diminished; also recorded: inhibited IL-10 production”. Further, the AhR reporter activation result in series [6] is listed as “activate an AhR reporter”.

In the case of `C=CC1(C)OC(=O)N(c2cc(Cl)cc(Cl)c2)C1=O` (stereo not shown) [Vinclozolin, vinclozolin], the AhR ligand status result in [7] is on record as “ligand for the aryl hydrocarbon receptor (AhR)”. For the same compound, the “AhR activation in HepG2” value in series [8] was “AhR activator”. For the same compound, in [1], the “Transcriptional pattern of NKT signature genes (Mttp, Cxcl16)” value was “demonstrates a similar transcriptional pattern”. Besides, the “Cellular responses (transcriptional changes and NKT responses)” value in [1] (preliminary experiments, FIGS. 2, 3) is “elicit similar cellular responses as oxazolone and TMO”. In addition, the “IL-10 production” value in series [5] is reported as “exerts modulatory effects on iNKT cell responses similar oxazolone”.

In the case of `CCO/C=C1\N=C(c2ccccc2)OC1=O` [oxazolone, 4-ethoxymethylene-2-phenyl-oxazol-5-one], in series [3], the NFkB reporter activation result is “not an NFkB reporter”. The “Oxazolone colitis in Vil-Cre+ X AhR fl/fl mice” value in [4] (3% presensitization, 1% intra-rectal, epithelial AhR deficiency) is on record as “protected against oxazolone colitis”. Further, in [9], the “Expression of AhR targets Cyp1a1 and IDO1” value is given as “modulates well-characterized AhR targets”. Further, in series [1], the Cxcl16 transcript expression result is reported as “induce CXCL16”; the Mttp transcript expression entry is “suppress Mttp”; the “Transcriptional pattern of NKT signature genes (Mttp, Cxcl16)” value is “modulates specific gene targets involved in NKT cell biology”. Besides, in series [5], the “IL-10 production” value is given as “diminished; also recorded: inhibited IL-10 production”. In [6], the AhR reporter activation result was “activate an AhR reporter”.
